Test: Effect on cholesterol solubility / bioaccessibility in an in vitro intestinal model (GDCA bile salt micelles, 13C NMR quantification of [4-13C]cholesterol)
Settings: cholesterol 3.5 mM, amount equivalent to 3.5 mM β-sitosterol
Experimental: In an embodiment, to evaluate the effect of the lipophilic extracts on cholesterol solubility, an in vitro intestinal model with glycodehoxycholic acid (GDCA) at 37 °C and pH 7.4 was used.
In an embodiment, solutions of cholesterol labeled with carbon-13 at carbon 4 ([4-^13C]cholesterol) with or without pine nut skin extracts was prepared in azeotropic mixtures of chloroform/methanol (87:13, v/v). Films are formed by solvent evaporation under a stream of nitrogen and heating. To remove possible traces of organic solvents, the films with cholesterol were placed on a desiccator under vacuum during, for example, 30 minutes at room temperature. […]
In an embodiment, to evaluate this effect, the bioaccessibility of labelled cholesterol([4-^13C]cholesterol) was measured by ^13C NMR, using an in vitro intestinal model composed of glycodeoxycholic acid bile salt micelles and lipophilic extracts from pine nut skin and from the two separated fractions, added individually.
In an embodiment, the quantification of cholesterol by ^13C NMR was possible due to the utilization of an isotopomer of cholesterol fully enriched in ^13C in carbon 4, which has a typical peak at 44 ppm, distinguishable from GDCA resonances. […] This methodology allows to quantify [4-^13C] cholesterol which is emulsified on the bile salt micelles, that is, the available quantity which is likely to be absorbed (bioaccessible). […]

Structure (SMILES): CC[C@H](CC[C@@H](C)[C@H]1CC[C@H]2[C@@H]3CC=C4C[C@@H](O)CC[C@]4(C)[C@H]3CC[C@]12C)C(C)C [β-Sitosterol]
- cholesterol emulsified (solubilized, bioaccessible) (GDCA 50 mM): 1.6 mM
- reduction of cholesterol solubility / bioaccessability relatively to the control (control = GDCA and [4-13C]cholesterol): 49%
